Results as given in patent US8901305B2, “Aryl lactam kinase inhibitors” (Bristol-Myers Squibb Company, priority 2012, dated 2014).

Biological target: T1, GST-Xa-hAAK1 (Homo sapiens, UniProt Q2M2I8)
T1 construct: made in house
Test: AAK1 kinase assay
Format: biochemical
Settings: ATP 22 μM, 3 hours at room temperature
Description: The assays were performed in U-bottom 384-well plates. […] The reactions were initiated by the combination of bacterially expressed, GST-Xa-hAAK1 with substrates and test compounds. The reactions were incubated at room temperature for 3 hours and terminated by adding 60 μl of 35 mM EDTA buffer to each sample. The reactions were analyzed on the Caliper LabChip 3000 (Caliper, Hopkinton, Mass.) by electrophoretic separation of the fluorescent substrate and phosphorylated product. […] Compounds were dissolved at 10 mM in dimethylsulfoxide (DMSO) and evaluated at eleven concentrations. IC50 values were derived by non-linear regression analysis.

T1 sequence (Q2M2I8 whole entry): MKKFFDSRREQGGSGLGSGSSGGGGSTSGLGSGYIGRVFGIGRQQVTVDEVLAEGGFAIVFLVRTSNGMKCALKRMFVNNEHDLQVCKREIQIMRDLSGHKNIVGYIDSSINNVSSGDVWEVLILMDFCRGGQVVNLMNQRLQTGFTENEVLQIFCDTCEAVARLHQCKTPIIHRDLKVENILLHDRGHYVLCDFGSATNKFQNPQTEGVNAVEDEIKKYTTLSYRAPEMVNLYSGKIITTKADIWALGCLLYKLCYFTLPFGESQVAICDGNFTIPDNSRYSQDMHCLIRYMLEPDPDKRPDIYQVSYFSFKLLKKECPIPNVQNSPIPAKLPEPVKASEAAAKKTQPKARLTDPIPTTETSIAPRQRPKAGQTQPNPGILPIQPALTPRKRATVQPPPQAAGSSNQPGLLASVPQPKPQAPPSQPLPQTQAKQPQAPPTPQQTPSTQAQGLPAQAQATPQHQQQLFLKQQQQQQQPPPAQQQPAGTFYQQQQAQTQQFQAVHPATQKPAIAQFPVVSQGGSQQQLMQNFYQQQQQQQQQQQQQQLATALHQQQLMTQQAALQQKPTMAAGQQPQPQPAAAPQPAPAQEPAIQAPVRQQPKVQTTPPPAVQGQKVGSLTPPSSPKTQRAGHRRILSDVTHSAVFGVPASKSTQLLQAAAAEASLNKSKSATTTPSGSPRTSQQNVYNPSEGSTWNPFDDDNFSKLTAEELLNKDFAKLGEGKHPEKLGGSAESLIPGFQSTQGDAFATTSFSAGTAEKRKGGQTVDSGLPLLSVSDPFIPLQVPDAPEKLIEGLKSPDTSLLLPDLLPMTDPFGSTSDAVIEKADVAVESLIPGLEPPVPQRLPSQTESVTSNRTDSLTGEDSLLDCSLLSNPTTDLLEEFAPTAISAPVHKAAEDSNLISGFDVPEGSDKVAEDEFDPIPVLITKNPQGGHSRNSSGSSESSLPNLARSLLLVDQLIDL

| SMILES | IC50 [µM] | IC50 (given as IC50 range) [µM] |
| --- | --- | --- |
| CCc1cc2c3ccnc(C)c3c(=O)n(C)c2cc1OC[C@@H](N)CC(C)C [Example 36, (S)-8-((2-amino-4-methylpentyl)oxy)-9-ethyl-4,6-dimethylbenzo[c][2,7]naphthyridin-5(6H)-one] | 0.00035 | – |
| Cc1nccc2c1c(=O)n(C)c1cc(OC[C@H](CC(C)C)N(C)C)ccc21 [Example 40, (S)-8-((2-(dimethylamino)-4-methylpentyl)oxy)-4,6-dimethylbenzo[c][2,7]naphthyridin-5(6H)-one] | 0.123 | – |
| CC(C)C[C@H](N)COc1ccc2c3ccncc3c(=O)n(CCO)c2c1 [Example 44, (S)-8-(2-amino-4-methylpentyloxy)-6-(2-hydroxyethyl)benzo[c][2,7]naphthyridin-5(6H)-one] | 0.041 | – |
| CC(C)C[C@H](N)COc1ccc2c3ccncc3c(=O)n(CC(F)(F)F)c2c1 [Example 45, (S)-8-(2-amino-4-methylpentyloxy)-6-(2,2,2-trifluoroethyl)benzo[c][2,7]naphthyridin-5(6H)-one] | 0.029 | – |
| COc1ccc(CNc2nccc3c2c(=O)n(C)c2cc(OC[C@@H](N)CC(C)C)ccc32)cc1 [Example 50, (S)-8-((2-amino-4-methylpentyl)oxy)-4-((4-methoxybenzyl)amino)-6-methylbenzo[c][2,7]naphthyridin-5(6H)-one] | 0.033 | – |
| CC(C)OC[C@H](N)COc1ccc2c3ccncc3c(=O)n(C)c2c1 [Example 53, (S)-8-(2-amino-3-isopropoxypropoxy)-6-methylbenzo[c][2,7]naphthyridin-5(6H)-one] | 0.119 | – |
| CN[C@H](COc1ccc2c3ccncc3c(=O)n(C)c2c1)CC(C)C [Example 54, (S)-6-methyl-8-((4-methyl-2-(methylamino)pentyl)oxy)benzo[c][2,7]naphthyridin-5(6H)-one] | – | 0.01 to 0.1 |
| Cn1c(=O)c2cnccc2c2ccc(OC[C@@H](N)CC(C)(F)F)cc21 [Example 55, (S)-8-((2-amino-4,4-difluoropentyl)oxy)-6-methylbenzo[c][2,7]naphthyridin-5(6H)-one] | – | 0.01 to 0.1 |
| Cn1c(=O)c2cnccc2c2ccc(OCC3CCCCN3)cc21 (centres unmarked) [Example 57, 6-methyl-8-(piperidin-2-ylmethoxy)benzo[c][2,7]naphthyridin-5(6H)-one] | 0.229 | – |
| CC(C)C[C@H](N)COc1ccc2c3ccnc(C(F)F)c3c(=O)n(C)c2c1 [Example 60, (S)-8-(2-amino-4-methylpentyloxy)-4-(difluoromethyl)-6-methylbenzo[c][2,7]naphthyridin-5(6H)-one] | – | 0.1 to 2 |
| Cc1nccc2c1c(=O)n(C)c1c(Cl)c(OC[C@@H](N)CC(C)C)ccc21 [Example 61, (S)-8-((2-amino-4-methylpentyl)oxy)-7-chloro-4,6-dimethylbenzo[c][2,7]naphthyridin-5(6H)-one] | 0.126 | – |
| Cc1cc2c(cn1)c(=O)n(C)c1cc(OC[C@@H](N)CC(C)C)c(Br)cc21 [Example 66] | – | 0.1 to 2 |
| Cc1cc2c(cn1)c(=O)n(C)c1cc(OC[C@@H](N)CC(C)C)ccc21 [Example 67, (S)-8-((2-amino-4-methylpentyl)oxy)-2,6 dimethylbenzo[c][2,7]naphthyridin-5(6H)-one] | 0.893 | – |
| Cc1cc2c(cn1)c(=O)n(C)c1cc(OC[C@@H](N)CC(C)C)c(Cl)cc21 [Example 68, (S)-8-((2-amino-4-methylpentyl)oxy)-9-chloro-2,6-dimethylbenzo[c][2,7]naphthyridin-5(6H)-one] | – | 0.01 to 0.1 |
| COC[C@H](N)COc1ccc2c3ccncc3c(=O)n(C)c2c1 [Example 69, (S)-8-(2-amino-3-methoxypropoxy)-6-methylbenzo[c][2,7]naphthyridin-5(6H)-one] | – | 0.01 to 0.1 |
| Cc1nccc2c1c(=O)n(C)c1cc(OC[C@@H](N)CC(C)C)c(CO)cc21 [Example 71, (S)-8-(2-amino-4-methylpentyloxy)-9-(hydroxymethyl)-4,6-dimethylbenzo[c][2,7]naphthyridin-5(6H)-one] | – | 0.001 to 0.01 |
| Cc1nccc2c1c(=O)n(C)c1cc(OC[C@@H](N)CC(C)C)c(-n3cccn3)cc21 [Example 74] | – | 0.001 to 0.01 |
